Measurements reported in ChEMBL document CHEMBL1201862, “PubChem BioAssay data set” (2004).
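Following 48 hours of exposure in 96-well plates, responses at five concentrations were used to interpolate endpoints linearly. The concentration for 50% growth inhibition is given as GI50.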 Calls of active or inactive are those of the source. Rule as the data show it: active = GI50 up to about 1.1 µM and inactive = higher.

What was measured:
Assay in all cases: inhibition of tumour cell growth, NCI panel, 48 h
[1] = test system: SK-OV-3
[2] = test system: SF-295
[3] = test system: A498
[4] = test system: K562
[5] = test system: UO-31
[6] = test system: UACC-62
[7] = test system: HCT-15
[8] = test system: HOP-92
[9] = test system: MDA-N
[10] = test system: Malme-3M
[11] = test system: LOX IMVI
[12] = test system: SF-539
[13] = test system: SK-MEL-5
[14] = test system: ACHN
[15] = test system: MCF7
[16] = test system: OVCAR-5
[17] = test system: T47D
[18] = test system: M14
[19] = test system: PC-3
[20] = test system: SN12C

Row | Structure (SMILES) | GI50 [1] | GI50 [2] | GI50 [3] | GI50 [4] | GI50 [5] | GI50 [6] | GI50 [7] [µM] | GI50 [8] | GI50 [9] | GI50 [10] | GI50 [11] | GI50 [12] | GI50 [13] | GI50 [14] | GI50 [15] | GI50 [16] | GI50 [17] | GI50 [18] | GI50 [19] | GI50 [20]
1 | C=C1C2CCC3(CCC4C5(C)CCCC4(C=[N+](CCO)C5)C3C2)C1O (configuration not stated) | > 100 µM (inactive) | > 100 µM (inactive) | > 100 µM (inactive) | > 10 µM (inactive) | > 100 µM (inactive) | > 100 µM (inactive) | > 100 | > 100 µM (inactive) | > 100 µM (inactive) | > 100 µM (inactive) | > 100 µM (inactive) | > 100 µM (inactive) | > 100 µM (inactive) | > 100 µM (inactive) | > 100 µM (inactive) | > 100 µM (inactive) | > 100 µM (inactive) | > 100 µM (inactive) | > 100 µM (inactive) | > 100 µM (inactive)
2 | C/C=C(/COC(C)=O)C(=O)OC1C=C(C=O)C(C)(C)C=C1C (configuration not stated) | > 100 µM (inactive) | > 100 µM (inactive) | > 100 µM (inactive) | 43.5 µM (inactive) | > 100 µM (inactive) | > 100 µM (inactive) | > 100 | > 100 µM (inactive) | > 100 µM (inactive) | > 100 µM (inactive) | > 100 µM (inactive) | > 100 µM (inactive) | > 100 µM (inactive) | > 100 µM (inactive) | 87.7 µM (inactive) | > 100 µM (inactive) | > 100 µM (inactive) | > 100 µM (inactive) | > 100 µM (inactive) | > 100 µM (inactive)
3 | COc1ccc2nc3ccc(OC)cc3c(SCCO)c2c1 | 54.5 µM (inactive) | 49.2 µM (inactive) | > 58.1 µM (inactive) | 9.91 µM (inactive) | 29.3 µM (inactive) | 38.5 µM (inactive) | 27.4 | > 67.5 µM (inactive) | 9.62 µM (inactive) | 15.6 µM (inactive) | 8.43 µM (inactive) | 20.7 µM (inactive) | 32.1 µM (inactive) | 23.7 µM (inactive) | 6.01 µM (inactive) | > 100 µM (inactive) | 15.8 µM (inactive) | 77.3 µM (inactive) | 27.4 µM (inactive) | 26.4 µM (inactive)
4 | COc1cc([C@@H]2c3cc4c(cc3[C@H](OC3OC5COC(C(C)C)OC5C(O)C3O)C3COC(=O)[C@@H]32)OCO4)cc(OC)c1O (some centres not stated) | 17.3 µM (inactive) | 8.22 µM (inactive) | 10.7 µM (inactive) | 8.61 µM (inactive) | 10.2 µM (inactive) | 11.1 µM (inactive) | 10.3 | 11.9 µM (inactive) | 2.4 µM (inactive) | 16.6 µM (inactive) | 12.2 µM (inactive) | 2.72 µM (inactive) | 7.33 µM (inactive) | 3.51 µM (inactive) | 3.6 µM (inactive) | 12.4 µM (inactive) | 26.6 µM (inactive) | 11.4 µM (inactive) | 4.08 µM (inactive) | 
5 | COc1ccc(C(=O)Sc2c(-c3ccccc3)c(=O)n(-c3ccccc3)c(=S)n2-c2ccccc2)cc1 | > 100 µM (inactive) | > 100 µM (inactive) | 15.4 µM (inactive) | 37.1 µM (inactive) |  | > 100 µM (inactive) | > 100 | 24.1 µM (inactive) | > 100 µM (inactive) | 48.5 µM (inactive) | 74.5 µM (inactive) | 14.2 µM (inactive) |  | 40.5 µM (inactive) | > 100 µM (inactive) | > 100 µM (inactive) | > 100 µM (inactive) | 68.7 µM (inactive) | 5.16 µM (inactive) | 41.7 µM (inactive)
6 | Cc1ccc(C2=Nc3cc(C)c(Cl)cc3S(=O)(=O)NN2)cc1 | > 100 µM (inactive) | > 100 µM (inactive) | > 100 µM (inactive) | 36.3 µM (inactive) | > 100 µM (inactive) | 56.9 µM (inactive) | > 100 | > 100 µM (inactive) | > 100 µM (inactive) | > 100 µM (inactive) | > 100 µM (inactive) | > 100 µM (inactive) | > 100 µM (inactive) | 65.5 µM (inactive) | > 100 µM (inactive) |  | 54 µM (inactive) | > 100 µM (inactive) | > 100 µM (inactive) | > 100 µM (inactive)
7 | CC1=C2C(=O)c3ccccc3C(=O)[C@H]2C[C@@H](N2CCCC2=O)O1 | > 100 µM (inactive) | 66.8 µM (inactive) | 54.8 µM (inactive) | 49.8 µM (inactive) | > 100 µM (inactive) | 33 µM (inactive) | 49.2 | 21.9 µM (inactive) | 16.4 µM (inactive) | 17.4 µM (inactive) | 20.2 µM (inactive) | 25.5 µM (inactive) | 17.1 µM (inactive) | 90.6 µM (inactive) | 12.9 µM (inactive) | 19.4 µM (inactive) | 22.8 µM (inactive) | 14.7 µM (inactive) | > 100 µM (inactive) | 53.2 µM (inactive)
8 | O=C(O)CCC(=O)c1ccc2c(c1)C(C(=O)O)CC2 (configuration not stated) | > 100 µM (inactive) | > 100 µM (inactive) | > 100 µM (inactive) | > 100 µM (inactive) | > 100 µM (inactive) | > 100 µM (inactive) | > 100 | > 100 µM (inactive) | > 100 µM (inactive) | > 100 µM (inactive) | > 100 µM (inactive) | > 100 µM (inactive) | > 100 µM (inactive) | > 100 µM (inactive) | > 100 µM (inactive) | > 100 µM (inactive) | > 100 µM (inactive) | > 100 µM (inactive) | > 100 µM (inactive) | > 100 µM (inactive)
9 | O=C(OCC1OC(n2nc(Cn3nnc(-c4cccnc4)n3)n(-c3cccc4ccccc34)c2=S)C(OC(=O)c2ccccc2)C1OC(=O)c1ccccc1)c1ccccc1 (configuration not stated) | > 100 µM (inactive) | > 100 µM (inactive) | > 100 µM (inactive) | > 100 µM (inactive) | > 100 µM (inactive) | > 100 µM (inactive) | > 100 | > 100 µM (inactive) | > 100 µM (inactive) | > 100 µM (inactive) | > 100 µM (inactive) | > 100 µM (inactive) | > 100 µM (inactive) | > 100 µM (inactive) | > 100 µM (inactive) | 65.9 µM (inactive) | > 100 µM (inactive) | 35.3 µM (inactive) | > 100 µM (inactive) | > 100 µM (inactive)
10 | CCOc1ccc(/N=N/c2ccc3cc(/C(C)=N/NC(=O)/C(C#N)=C\c4ccc(N(CCC#N)CCC#N)cc4)c(=O)oc3c2)cc1 | > 10 µM (inactive) | > 10 µM (inactive) | > 10 µM (inactive) | > 10 µM (inactive) | > 10 µM (inactive) | > 10 µM (inactive) | > 10 | > 10 µM (inactive) | > 10 µM (inactive) | > 10 µM (inactive) | > 10 µM (inactive) | > 10 µM (inactive) | > 10 µM (inactive) | > 10 µM (inactive) | > 10 µM (inactive) | > 10 µM (inactive) | > 10 µM (inactive) | > 10 µM (inactive) | > 10 µM (inactive) | > 10 µM (inactive)
11 | Nc1nc(N)c2c(n1)CCC(S(=O)(=O)c1ccc3ccccc3c1)C2 (configuration not stated) | 33.3 µM (inactive) | 1.66 µM (inactive) | 24.9 µM (inactive) |  | 5.45 µM (inactive) |  | 2.38 | 9.1 µM (inactive) | 0.766 µM (active) | 2.24 µM (inactive) | 0.706 µM (active) | 3.8 µM (inactive) | 2.55 µM (inactive) | 3.85 µM (inactive) | 10.1 µM (inactive) | 87.7 µM (inactive) | 14.5 µM (inactive) | 12.6 µM (inactive) | 17.6 µM (inactive) | 7 µM (inactive)
12 | O=c1cc(NNc2cccc(Cl)c2)[nH]c(=O)[nH]1 | > 100 µM (inactive) |  | 42.2 µM (inactive) | 29 µM (inactive) | 18.8 µM (inactive) | 31.6 µM (inactive) | 17.1 | 18.5 µM (inactive) | 73.8 µM (inactive) | 16.3 µM (inactive) | 15.4 µM (inactive) | > 100 µM (inactive) | 51.1 µM (inactive) | 38.9 µM (inactive) | 1.88 µM (inactive) | 77.4 µM (inactive) | > 100 µM (inactive) | 16.7 µM (inactive) | 75.3 µM (inactive) | 
13 | COC(=O)c1c2c(cc3c1CC1(C3)Cc3ccc4c(c3C1=O)CCC4)CCC2 (configuration not stated) | 3.93 µM (inactive) | 2.12 µM (inactive) | 3.42 µM (inactive) | 2.2 µM (inactive) | 3.05 µM (inactive) | 2.26 µM (inactive) | 3.58 | 1.84 µM (inactive) | 0.608 µM (active) | 3.39 µM (inactive) | 3.9 µM (inactive) | 2.38 µM (inactive) | 2.38 µM (inactive) | 5.15 µM (inactive) | 2.45 µM (inactive) | > 21.1 µM (inactive) | 5.13 µM (inactive) | 3.03 µM (inactive) | 1.79 µM (inactive) | 4.2 µM (inactive)
14 | CC1=C[C@@H](C)C[C@]2(C)CC[C@H](O2)[C@]23CC[C@](C(=O)O)(C[C@H](O2)[C@@H]2O[C@@](C)(CC2=O)[C@@H](O)[C@H]2CC[C@@]4(CCC[C@@H](O4)[C@H](C)C(=O)O[C@H]4C[C@H]([C@]5(O)OCC[C@H](C)[C@@H]5O)O[C@H]4C=C1)O2)O3 | > 10 µM (inactive) | > 5.86 µM (inactive) | > 5.75 µM (inactive) | > 10 µM (inactive) | > 10 µM (inactive) | > 9.02 µM (inactive) | > 10 | > 3.92 µM (inactive) | > 8.95 µM (inactive) | > 10 µM (inactive) | > 6.92 µM (inactive) | > 5.82 µM (inactive) | > 7.23 µM (inactive) | > 10 µM (inactive) | > 10 µM (inactive) | > 10 µM (inactive) | > 10 µM (inactive) | > 9.38 µM (inactive) | > 10 µM (inactive) | > 8.55 µM (inactive)
